ChEMBL document CHEMBL1201861, “Genomics of Drug Sensitity in Cancer screening data, Wellcome Trust Sanger Institute”

Legend:
Assay in all cases: cells
[1] = tested on: COLO-800; format: functional, cell-based, Homo sapiens; conditions: Homo sapiens, COLO-800;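 also: growth inhibition of COLO-800 cells, read out with a cell viability assay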
Description: SANGER: Inhibition of human COLO-800 cell growth in a cell viability assay.

[2] = tested on: COLO-824; format: functional, cell-based, Homo sapiens; conditions: Homo sapiens, COLO-824
Description: SANGER: Inhibition of human COLO-824 cell growth in a cell viability assay.

[3] = tested on: DB; format: functional, cell-based; conditions: Homo sapiens
Description: SANGER: Inhibition of human DB cell growth in a cell viability assay.

[4] = tested on: DJM-1; format: functional, cell-based, Homo sapiens; conditions: Homo sapiens, DJM-1;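 also: growth inhibition of human DJM-1 cells, read out by a cell viability assay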
Description: SANGER: Inhibition of human DJM-1 cell growth in a cell viability assay.

[5] = tested on: DU-145; format: functional, cell-based, Homo sapiens; conditions: Homo sapiens, DU-145
Description: SANGER: Inhibition of human DU-145 cell growth in a cell viability assay.

[6] = tested on: EFO-27; format: functional, cell-based, Homo sapiens; conditions: Homo sapiens, EFO-27;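 also: growth inhibition of EFO-27 cells, read out with a cell viability assay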
Description: SANGER: Inhibition of human EFO-27 cell growth in a cell viability assay.

[7] = tested on: ES5; format: functional, cell-based, Homo sapiens; conditions: Homo sapiens, ES5;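 also: growth inhibition of human ES5 cells, read out by a cell viability assay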
Description: SANGER: Inhibition of human ES5 cell growth in a cell viability assay.

[8] = tested on: EW-11; format: functional, cell-based, Homo sapiens; conditions: Homo sapiens, EW-11;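 also: growth inhibition of human EW-11 cells, measured with a cell viability assay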
Description: SANGER: Inhibition of human EW-11 cell growth in a cell viability assay.

[9] = tested on: FaDu; format: functional, cell-based, Homo sapiens; conditions: Homo sapiens, FaDu;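 also: cell viability readout of growth inhibition in FaDu cells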
Description: SANGER: Inhibition of human FADU cell growth in a cell viability assay.

[10] = tested on: HCC1187; format: functional, cell-based, Homo sapiens; conditions: Homo sapiens, HCC1187;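 also: growth inhibition of HCC1187 cells, read out with a cell viability assay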
Description: SANGER: Inhibition of human HCC1187 cell growth in a cell viability assay.

[11] = tested on: HDLM-2; format: functional, cell-based; conditions: Homo sapiens;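 also: cell viability assay measuring suppression of HDLM-2 proliferation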
Description: SANGER: Inhibition of human HDLM-2 cell growth in a cell viability assay.

[12] = tested on: HH; format: functional, cell-based; conditions: Homo sapiens
Description: SANGER: Inhibition of human HH cell growth in a cell viability assay.

[13] = tested on: HuO-3N1; format: functional, cell-based, Homo sapiens; conditions: Homo sapiens, HuO-3N1;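 also: cell viability readout used to measure how strongly compounds suppress proliferation of human HuO-3N1 cells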
Description: SANGER: Inhibition of human HuO-3N1 cell growth in a cell viability assay.

[14] = tested on: JVM-3; format: functional, cell-based; conditions: Homo sapiens;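 also: growth inhibition of human JVM-3 cells, read out with a cell viability assay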
Description: SANGER: Inhibition of human JVM-3 cell growth in a cell viability assay.

[15] = tested on: K562; format: functional, cell-based; conditions: Homo sapiens
Description: SANGER: Inhibition of human K-562 cell growth in a cell viability assay.

[16] = tested on: KY821; format: functional, cell-based; conditions: Homo sapiens;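 also: growth inhibition of human KY821 cells, read out by a cell viability assay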
Description: SANGER: Inhibition of human KY821 cell growth in a cell viability assay.

[17] = tested on: KYSE-450; format: functional, cell-based; conditions: Homo sapiens;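 also: cell growth inhibition measured by a viability assay in human KYSE-450 cells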
Description: SANGER: Inhibition of human KYSE-450 cell growth in a cell viability assay.

[18] = tested on: L-428; format: functional, cell-based; conditions: Homo sapiens
Description: SANGER: Inhibition of human L-428 cell growth in a cell viability assay.

[19] = tested on: LNCaP-Clone-FGC; format: functional, cell-based, Homo sapiens; conditions: Homo sapiens, LNCaP-Clone-FGC
Description: SANGER: Inhibition of human LNCaP-Clone-FGC cell growth in a cell viability assay.

[20] = tested on: LS-411N; format: functional, cell-based, Homo sapiens; conditions: Homo sapiens, LS-411N
[21] = tested on: LS-513; format: functional, cell-based, Homo sapiens; conditions: Homo sapiens, LS-513
Description: SANGER: Inhibition of human LS-513 cell growth in a cell viability assay.

[22] = tested on: MEL-HO; format: functional, cell-based, Homo sapiens; conditions: Homo sapiens, MEL-HO
Description: SANGER: Inhibition of human MEL-HO cell growth in a cell viability assay.

[23] = tested on: MHH-PREB-1; format: functional, cell-based; conditions: Homo sapiens;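 also: cell viability assay measuring inhibition of proliferation of human MHH-PREB-1 cells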
Description: SANGER: Inhibition of human MHH-PREB-1 cell growth in a cell viability assay.

[24] = tested on: MZ7-mel; format: functional, cell-based, Homo sapiens; conditions: Homo sapiens, MZ7-mel;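 also: growth inhibition of human MZ7-mel cells, measured by a cell viability assay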
Description: SANGER: Inhibition of human MZ7-mel cell growth in a cell viability assay.

[25] = tested on: NB17; format: functional, cell-based; conditions: Homo sapiens;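 also: growth inhibition of NB17 cells, read out with a cell viability assay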
Description: SANGER: Inhibition of human NB17 cell growth in a cell viability assay.

[26] = tested on: NB7; format: functional, cell-based; conditions: Homo sapiens;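 also: growth inhibition of NB7 cells, read out with a cell viability assay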
Description: SANGER: Inhibition of human NB7 cell growth in a cell viability assay.

[27] = tested on: NCI-H1648; format: functional, cell-based, Homo sapiens; conditions: Homo sapiens, NCI-H1648;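 also: cell viability assay measuring inhibition of NCI-H1648 cell growth, from the Sanger screening data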
Description: SANGER: Inhibition of human NCI-H1648 cell growth in a cell viability assay.

[28] = tested on: NCI-H1651; format: functional, cell-based, Homo sapiens; conditions: Homo sapiens, NCI-H1651;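 also: Read-out is a cell viability assay, with IC50 expressing inhibition of NCI-H1651 cell growth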
Description: SANGER: Inhibition of human NCI-H1651 cell growth in a cell viability assay.

[29] = tested on: NCI-H1770; format: functional, cell-based; conditions: Homo sapiens;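 also: growth inhibition of NCI-H1770 cells determined with a viability readout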
Description: SANGER: Inhibition of human NCI-H1770 cell growth in a cell viability assay.

[30] = tested on: NCI-H1993; format: functional, cell-based, Homo sapiens; conditions: Homo sapiens, NCI-H1993;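 also: growth inhibition of the cancer cell line, assessed with a cell viability assay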
Description: SANGER: Inhibition of human NCI-H1993 cell growth in a cell viability assay.

[31] = tested on: NCI-H2342; format: functional, cell-based; conditions: Homo sapiens;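 also: growth inhibition of the cancer cell line, determined with a cell viability assay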
Description: SANGER: Inhibition of human NCI-H2342 cell growth in a cell viability assay.

[32] = tested on: NCI-H810; format: functional, cell-based, Homo sapiens; conditions: Homo sapiens, NCI-H810;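 also: IC50 reflects inhibition of cancer cell line growth, read out with a cell viability assay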
Description: SANGER: Inhibition of human NCI-H810 cell growth in a cell viability assay.

[33] = tested on: NOMO-1; format: functional, cell-based; conditions: Homo sapiens;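 also: growth inhibition of human NOMO-1 cells measured by a cell viability assay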
Description: SANGER: Inhibition of human NOMO-1 cell growth in a cell viability assay.

[34] = tested on: NY; format: functional, cell-based, Homo sapiens; conditions: Homo sapiens, NY
Description: SANGER: Inhibition of human NY cell growth in a cell viability assay.

[35] = tested on: OCI-AML2; format: functional, cell-based; conditions: Homo sapiens;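 also: growth inhibition of OCI-AML2 cells, read out with a cell viability assay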
Description: SANGER: Inhibition of human OCI-AML2 cell growth in a cell viability assay.

[36] = tested on: OVCAR-8; format: functional, cell-based, Homo sapiens; conditions: Homo sapiens, OVCAR-8;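 also: growth inhibition of human OVCAR-8 cells, read out by a cell viability assay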
Description: SANGER: Inhibition of human OVCAR-8 cell growth in a cell viability assay.

[37] = tested on: PSN1; format: functional, cell-based, Homo sapiens; conditions: Homo sapiens, PSN1;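 also: suppression of growth of human PSN1 cells, read out by a cell viability assay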
Description: SANGER: Inhibition of human PSN1 cell growth in a cell viability assay.

[38] = tested on: RPMI-2650; format: functional, cell-based, Homo sapiens; conditions: Homo sapiens, RPMI-2650
Description: SANGER: Inhibition of human RPMI-2650 cell growth in a cell viability assay.

[39] = tested on: RVH-421; format: functional, cell-based, Homo sapiens; conditions: Homo sapiens, RVH-421
Description: SANGER: Inhibition of human RVH-421 cell growth in a cell viability assay.

[40] = tested on: SNU-387; format: functional, cell-based, Homo sapiens; conditions: Homo sapiens, SNU-387
Description: SANGER: Inhibition of human SNU-387 cell growth in a cell viability assay.

[41] = tested on: SAOS-2; format: functional, cell-based, Homo sapiens; conditions: Homo sapiens, SAOS-2;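 also: growth inhibition of human Saos-2 cells determined by a cell viability assay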
Description: SANGER: Inhibition of human Saos-2 cell growth in a cell viability assay.

[42] = tested on: A 172; format: functional, cell-based, Homo sapiens; conditions: Homo sapiens, A 172;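 also: growth inhibition of A172 cells, measured with a cell viability readout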
Description: SANGER: Inhibition of human A172 cell growth in a cell viability assay.

[43] = tested on: ATN-1; format: functional, cell-based; conditions: Homo sapiens;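 also: growth inhibition of human ATN-1 cells, read out with a cell viability assay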
Description: SANGER: Inhibition of human ATN-1 cell growth in a cell viability assay.

[44] = tested on: ASPC1; format: functional, cell-based, Homo sapiens; conditions: Homo sapiens, ASPC1;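 also: growth inhibition of AsPC-1 cells, read out with a cell viability assay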
Description: SANGER: Inhibition of human AsPC-1 cell growth in a cell viability assay.

[45] = tested on: BB30-HNC; format: functional, cell-based, Homo sapiens; conditions: Homo sapiens, BB30-HNC;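 also: growth inhibition of the cultured cell line, read out by a cell viability assay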
Description: SANGER: Inhibition of human BB30-HNC cell growth in a cell viability assay.

[46] = tested on: CAL-72; format: functional, cell-based, Homo sapiens; conditions: Homo sapiens, CAL-72;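 also: cell viability assay measuring inhibition of proliferation in the CAL-72 cell line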
Description: SANGER: Inhibition of human CAL-72 cell growth in a cell viability assay.

[47] = tested on: TE-5; format: functional, cell-based, Homo sapiens; conditions: Homo sapiens, TE-5;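 also: inhibition of cell growth, read out by a cell viability assay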
Description: SANGER: Inhibition of human TE-5 cell growth in a cell viability assay.

[48] = tested on: TE-9; format: functional, cell-based, Homo sapiens; conditions: Homo sapiens, TE-9;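 also: cell growth inhibition, measured with a cell viability readout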
Description: SANGER: Inhibition of human TE-9 cell growth in a cell viability assay.

[49] = tested on: TK-10; format: functional, cell-based, Homo sapiens; conditions: Homo sapiens, TK-10;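 also: growth inhibition of TK-10 cells, read out in a cell viability assay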
Description: SANGER: Inhibition of human TK10 cell growth in a cell viability assay.

[50] = tested on: UACC-257; format: functional, cell-based, Homo sapiens; conditions: Homo sapiens, UACC-257
Description: SANGER: Inhibition of human UACC-257 cell growth in a cell viability assay.

[51] = tested on: UACC-62; format: functional, cell-based, Homo sapiens; conditions: Homo sapiens, UACC-62;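 also: growth inhibition of human UACC-62 cells, read out by a cell viability assay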
Description: SANGER: Inhibition of human UACC-62 cell growth in a cell viability assay.

[52] = tested on: UMUC3; format: functional, cell-based, Homo sapiens; conditions: Homo sapiens, UMUC3;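 also: growth inhibition of human UM-UC-3 cells, read out with a cell viability assay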
Description: SANGER: Inhibition of human UM-UC-3 cell growth in a cell viability assay.

[53] = tested on: VMRC-RCZ; format: functional, cell-based; conditions: Homo sapiens;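 also: growth inhibition measured with a cell viability assay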
Description: SANGER: Inhibition of human VMRC-RCZ cell growth in a cell viability assay.

SMILES: CCOc1nc(NC(=O)Cc2cc(OC)ccc2OC)cc(N)c1C#N
- IC50 [1]: > 10 µM
- IC50 [2]: > 10 µM
- IC50 [3]: > 10 µM
- IC50 [4]: > 10 µM
- IC50 [5]: > 10 µM
- IC50 [6]: > 10 µM
- IC50 [7]: > 10 µM
- IC50 [8]: > 10 µM
- IC50 [9]: > 10 µM
- IC50 [10]: > 10 µM
- IC50 [11]: > 10 µM
- IC50 [12]: > 10 µM
- IC50 [13]: > 10 µM
- IC50 [14]: > 10 µM
- IC50 [15]: > 10 µM
- IC50 [16]: > 10 µM
- IC50 [17]: > 10 µM
- IC50 [18]: > 10 µM
- IC50 [19]: > 10 µM
- IC50 [20]: > 10 µM
- IC50 [21]: > 10 µM
- IC50 [22]: > 10 µM
- IC50 [23]: > 10 µM
- IC50 [24]: > 10 µM
- IC50 [25]: > 10 µM
- IC50 [26]: 2.27 µM
- IC50 [27]: > 10 µM
- IC50 [28]: > 10 µM
- IC50 [29]: > 10 µM
- IC50 [30]: > 10 µM
- IC50 [31]: > 10 µM
- IC50 [32]: > 10 µM
- IC50 [33]: > 10 µM
- IC50 [34]: > 10 µM
- IC50 [35]: > 10 µM
- IC50 [36]: > 10 µM
- IC50 [37]: > 10 µM
- IC50 [38]: > 10 µM
- IC50 [39]: > 10 µM
- IC50 [40]: > 10 µM
- IC50 [41]: > 10 µM
- IC50 [42]: > 10 µM
- IC50 [43]: > 10 µM
- IC50 [44]: > 10 µM
- IC50 [45]: > 10 µM
- IC50 [46]: > 10 µM
- IC50 [47]: > 10 µM
- IC50 [48]: > 10 µM
- IC50 [49]: > 10 µM
- IC50 [50]: > 10 µM
- IC50 [51]: > 10 µM
- IC50 [52]: > 10 µM
- IC50 [53]: > 10 µM

SMILES: CC(=O)O[C@@H]1[C@@H](OC(C)=O)[C@@H](O)[C@H](Oc2c(-c3ccc(O)cc3)oc3cc(O)cc(O)c3c2=O)O[C@H]1C
- IC50 [1]: > 10 µM
- IC50 [2]: > 10 µM
- IC50 [3]: > 10 µM
- IC50 [4]: > 10 µM
- IC50 [5]: > 10 µM
- IC50 [6]: > 10 µM
- IC50 [7]: > 10 µM
- IC50 [8]: > 10 µM
- IC50 [9]: > 10 µM
- IC50 [10]: > 10 µM
- IC50 [11]: > 10 µM
- IC50 [12]: > 10 µM
- IC50 [13]: 2.78 µM
- IC50 [14]: > 10 µM
- IC50 [15]: > 10 µM
- IC50 [16]: > 10 µM
- IC50 [17]: > 10 µM
- IC50 [18]: > 10 µM
- IC50 [19]: > 10 µM
- IC50 [20]: > 10 µM
- IC50 [21]: > 10 µM
- IC50 [22]: > 10 µM
- IC50 [23]: > 10 µM
- IC50 [24]: > 10 µM
- IC50 [25]: > 10 µM
- IC50 [26]: > 10 µM
- IC50 [27]: > 10 µM
- IC50 [28]: > 10 µM
- IC50 [29]: > 10 µM
- IC50 [30]: > 10 µM
- IC50 [31]: > 10 µM
- IC50 [32]: > 10 µM
- IC50 [33]: > 10 µM
- IC50 [34]: > 10 µM
- IC50 [35]: > 10 µM
- IC50 [36]: > 10 µM
- IC50 [37]: > 10 µM
- IC50 [38]: > 10 µM
- IC50 [39]: > 10 µM
- IC50 [40]: > 10 µM
- IC50 [41]: > 10 µM
- IC50 [42]: 4.77 µM
- IC50 [43]: > 10 µM
- IC50 [44]: > 10 µM
- IC50 [45]: > 10 µM
- IC50 [46]: 3.89 µM
- IC50 [47]: > 10 µM
- IC50 [48]: > 10 µM
- IC50 [49]: > 10 µM
- IC50 [50]: > 10 µM
- IC50 [51]: > 10 µM
- IC50 [52]: > 10 µM
- IC50 [53]: > 10 µM

SMILES: O=C1N=C(NCc2cccs2)S/C1=C\c1ccc2ncccc2c1
- IC50 [1]: > 5 µM
- IC50 [2]: > 5 µM
- IC50 [3]: > 5 µM
- IC50 [4]: > 5 µM
- IC50 [5]: > 5 µM
- IC50 [6]: > 5 µM
- IC50 [7]: > 5 µM
- IC50 [8]: > 5 µM
- IC50 [9]: > 5 µM
- IC50 [10]: > 5 µM
- IC50 [11]: > 5 µM
- IC50 [12]: > 5 µM
- IC50 [13]: > 5 µM
- IC50 [14]: > 5 µM
- IC50 [15]: > 5 µM
- IC50 [16]: > 5 µM
- IC50 [17]: > 5 µM
- IC50 [18]: > 5 µM
- IC50 [19]: > 5 µM
- IC50 [20]: > 5 µM
- IC50 [21]: > 5 µM
- IC50 [22]: > 5 µM
- IC50 [23]: > 5 µM
- IC50 [24]: > 5 µM
- IC50 [25]: > 5 µM
- IC50 [26]: > 5 µM
- IC50 [27]: > 5 µM
- IC50 [28]: > 5 µM
- IC50 [29]: > 5 µM
- IC50 [30]: > 5 µM
- IC50 [31]: > 5 µM
- IC50 [32]: > 5 µM
- IC50 [33]: > 5 µM
- IC50 [34]: > 5 µM
- IC50 [35]: > 5 µM
- IC50 [36]: > 5 µM
- IC50 [37]: 4.11 µM
- IC50 [38]: > 5 µM
- IC50 [39]: > 5 µM
- IC50 [40]: > 5 µM
- IC50 [41]: > 5 µM
- IC50 [42]: > 5 µM
- IC50 [43]: > 5 µM
- IC50 [44]: > 5 µM
- IC50 [45]: > 5 µM
- IC50 [46]: > 5 µM
- IC50 [47]: > 5 µM
- IC50 [48]: > 5 µM
- IC50 [49]: > 5 µM
- IC50 [50]: > 5 µM
- IC50 [51]: > 5 µM
- IC50 [52]: 2.74 µM
- IC50 [53]: > 5 µM
